Legend:
Type in all cases: in vivo
[1] = test system: deadnettle (henbit deadnettle, Lamium amplexicaule); assay: Test C postemergence greenhouse test, plant response rating 0-100; details: for Plant response rating, Deadnettle: 250 g ai/ha, scale 0 to 100
In short: (§1)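 Potted in peat/vermiculite mix; postemergence application at 1–4 leaves (2–18 cm); greenhouse 13–15 d; visual score 0–100 relative to untreated plants; dash = no test result.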

[2] = test system: surinam grass (Brachiaria decumbens); assay: as above; details: for Plant response rating, Surinam Grass: 250 g ai/ha, scale 0 to 100
In short: as §1

[3] = test system: cocklebur (common cocklebur, Xanthium strumarium); assay: as above; details: for Plant response rating, Cocklebur: 250 g ai/ha, scale 0 to 100
In short: as §1

[4] = test system: green foxtail (Setaria viridis); assay: as above; details: for Plant response rating, Foxtail, Green: 250 g ai/ha, scale 0 to 100
In short: as §1

[5] = test system: goosegrass (Eleusine indica); assay: as above; details: for Plant response rating, Goosegrass: 250 g ai/ha, scale 0 to 100
In short: as §1

[6] = test system: bermudagrass (Cynodon dactylon); assay: as above; details: for Plant response rating, Bermudagrass: 250 g ai/ha, scale 0 to 100
In short: as §1

[7] = test system: woolly cupgrass (Eriochloa villosa); assay: as above; details: for Plant response rating, Cupgrass, Woolly: 250 g ai/ha, scale 0 to 100
In short: as §1

[8] = test system: canarygrass (Phalaris minor); assay: as above; details: for Plant response rating, Canarygrass: 250 g ai/ha, scale 0 to 100
In short: as §1

[9] = test system: downy bromegrass (Bromus tectorum); assay: as above; details: for Plant response rating, Bromegrass, Downy: 250 g ai/ha, scale 0 to 100
In short: as §1

[10] = test system: waterhemp_RES2, (ALS & HPPD resistant common waterhemp, Amaranthus rudis); assay: Test E postemergence greenhouse test, plant response rating 0-100; details: scale 0 to 100
Protocol: At the same time, plants from these crop and weed species and also waterhemp_RES1, (ALS & Triazine resistant common waterhemp, Amaranthus rudis), and waterhemp_RES2, (ALS & HPPD resistant common waterhemp, Amaranthus rudis) were planted in pots containing Redi-Earth® planting medium (Scotts Company, 14111 Scottslawn Road, Marysville, Ohio 43041) comprising spaghnum peat moss, vermiculite, wetting agent and starter nutrients were treated with postemergence applications of test chemicals formulated in the same manner. Plants ranged in height from 2 to 18 cm for postemergence treatments (1- to 4-leaf stage).
Treated plants and controls were maintained in a greenhouse for 14 to 21 days, after which time all species were compared to controls and visually evaluated. Plant response ratings, summarized in Table E, are based on a scale of 0 to 100 where 0 is no effect and 100 is complete control. A dash (-) response means no test result.

SMILES	Plant response rating (0 to 100), Deadnettle ([1]; 31 g ai/ha)	Plant response rating (0 to 100), Deadnettle ([1]; 62 g ai/ha)	Plant response rating (0 to 100), Deadnettle ([1]; 125 g ai/ha)	Plant response rating, Deadnettle [1]	Plant response rating (0 to 100), Surinam Grass ([2]; 62 g ai/ha)	Plant response rating (0 to 100), Surinam Grass ([2]; 125 g ai/ha)	Plant response rating, Surinam Grass [2]	Plant response rating (0 to 100), Cocklebur ([3]; 31 g ai/ha)	Plant response rating (0 to 100), Cocklebur ([3]; 62 g ai/ha)	Plant response rating (0 to 100), Cocklebur ([3]; 125 g ai/ha)	Plant response rating, Cocklebur [3]	Plant response rating (0 to 100), Foxtail, Green ([4]; 31 g ai/ha)	Plant response rating (0 to 100), Foxtail, Green ([4]; 62 g ai/ha)	Plant response rating (0 to 100), Foxtail, Green ([4]; 125 g ai/ha)	Plant response rating, Foxtail, Green [4]	Plant response rating (0 to 100), Goosegrass ([5]; 31 g ai/ha)	Plant response rating (0 to 100), Goosegrass ([5]; 62 g ai/ha)	Plant response rating (0 to 100), Goosegrass ([5]; 125 g ai/ha)	Plant response rating, Goosegrass [5]	Plant response rating (0 to 100), Bermudagrass ([6]; 31 g ai/ha)	other results
C=CCn1cc(C(=O)c2ccccc2)c(-c2cc(Cl)cc(Cl)c2)n1 [Compound 60]	0	0	0	0	0	0	5	10	15	20	50	0	0	0	0	0	0	0	0	0	Plant response rating (0 to 100), Bermudagrass ([6]; 62 g ai/ha): 5; Plant response rating (0 to 100), Bermudagrass ([6]; 125 g ai/ha): 5; Plant response rating, Bermudagrass [6]: 5; Plant response rating (0 to 100), Cupgrass, Woolly ([7]; 31 g ai/ha): 0; Plant response rating (0 to 100), Cupgrass, Woolly ([7]; 62 g ai/ha): 0; Plant response rating (0 to 100), Cupgrass, Woolly ([7]; 125 g ai/ha): 5; Plant response rating, Cupgrass, Woolly [7]: 5; Plant response rating (0 to 100), Canarygrass ([8]; 31 g ai/ha): 0; Plant response rating (0 to 100), Canarygrass ([8]; 62 g ai/ha): 0; Plant response rating (0 to 100), Canarygrass ([8]; 125 g ai/ha): 0; Plant response rating, Canarygrass [8]: 0; Plant response rating (0 to 100), Bromegrass, Downy ([9]; 31 g ai/ha): 0; Plant response rating (0 to 100), Bromegrass, Downy ([9]; 62 g ai/ha): 0; Plant response rating (0 to 100), Bromegrass, Downy ([9]; 125 g ai/ha): 0; Plant response rating, Bromegrass, Downy [9]: 0; Plant response rating, Waterhemp_RES2 ([10]; 62 g ai/ha): 20; Plant response rating, Waterhemp_RES2 ([10]; 125 g ai/ha): 20; Plant response rating, Waterhemp_RES2 ([10]; 250 g ai/ha): 25
CCCn1cc(C(=O)c2ccccc2)c(-c2cc(Cl)cc(Cl)c2)n1 [Compound 61, [3-(3,5-dichlorophenyl)-1-propyl-1H-pyrazol-4-yl]phenylmethanone]	0	0	0	0	0	0	0	10	10	20	35	0	0	0	0	0	0	0	5	0	Plant response rating (0 to 100), Bermudagrass ([6]; 62 g ai/ha): 5; Plant response rating (0 to 100), Bermudagrass ([6]; 125 g ai/ha): 5; Plant response rating, Bermudagrass [6]: 5; Plant response rating (0 to 100), Cupgrass, Woolly ([7]; 31 g ai/ha): 5; Plant response rating (0 to 100), Cupgrass, Woolly ([7]; 62 g ai/ha): 10; Plant response rating (0 to 100), Cupgrass, Woolly ([7]; 125 g ai/ha): 10; Plant response rating, Cupgrass, Woolly [7]: 15; Plant response rating (0 to 100), Canarygrass ([8]; 31 g ai/ha): 0; Plant response rating (0 to 100), Canarygrass ([8]; 62 g ai/ha): 0; Plant response rating (0 to 100), Canarygrass ([8]; 125 g ai/ha): 0; Plant response rating, Canarygrass [8]: 0; Plant response rating (0 to 100), Bromegrass, Downy ([9]; 31 g ai/ha): 0; Plant response rating (0 to 100), Bromegrass, Downy ([9]; 62 g ai/ha): 0; Plant response rating (0 to 100), Bromegrass, Downy ([9]; 125 g ai/ha): 0; Plant response rating, Bromegrass, Downy [9]: 0; Plant response rating, Waterhemp_RES2 ([10]; 31 g ai/ha): 20; Plant response rating, Waterhemp_RES2 ([10]; 125 g ai/ha): 40; Plant response rating, Waterhemp_RES2 ([10]; 500 g ai/ha): 95
